From ChEMBL document CHEMBL3044684, “Synthesis and cytotoxic activity of novel benzopyrano[3,2-c]chromene-6,8-dione derivatives” (Med Chem Res, 2011) come the findings set out here.

Some results are limits rather than exact numbers.

Format in all cases: functional, cell-based
Assay [1] can be described thus: Cytotoxicity against Homo sapiens (human) LS180 cells after 96 hr by MTT assay. Conditions: LS180, 96 h.
Another assay has as its system HeLa. As to the kind of experiment: Cytotoxicity against Homo sapiens (human) HeLa cells after 96 hr by MTT assay.
Another assay has as its system Raji. As to the kind of experiment: Cytotoxicity against Homo sapiens (human) Raji cells after 96 hr by MTT assay.
Another assay concerns MCF7. The assay is described as follows: Cytotoxicity against Homo sapiens (human) MCF7 cells after 96 hr by MTT assay. The conditions noted are these: MCF7, 96 h.

With `O=C1CCCC2=C1C(c1cccc(Br)c1)c1c(c3ccccc3oc1=O)O2` (stereo not drawn), the IC16 in assay [1] was 35.1 µM; with HeLa, 21.9 µM; with Raji, 11.3 µM; with MCF7, over 50 µM. For the same compound, the IC50 in assay [1] was 83.8 µM; with HeLa it was 61.6 µM; in the assay on Raji it was 49.3 µM; in the assay with MCF7, over 50 µM.
Consider `O=C1CCCC2=C1C(c1ccc(Br)cc1)c1c(c3ccccc3oc1=O)O2` (stereo not drawn), for which the IC16 in assay [1] is over 100 µM; in the assay on HeLa, over 100 µM; in the assay with Raji it was 22.4 µM; with MCF7, 15.7 µM. In addition, the IC50 was over 100 µM in assay [1], over 100 µM with HeLa, 82.4 µM in the assay on Raji and 49.3 µM with MCF7.
As for `O=C1CCCC2=C1C(c1ccccc1Cl)c1c(c3ccccc3oc1=O)O2` (stereo not drawn), the IC16 (in assay [1]; in the assay with HeLa; in the assay with Raji; in the assay on MCF7) was over 25 µM in each case. For the same compound, the IC50 (in assay [1]; in the assay with HeLa; in the assay on Raji; with MCF7) was over 25 µM in each case.
Take `O=C1CCCC2=C1C(c1cccc(Cl)c1)c1c(c3ccccc3oc1=O)O2` (stereo not drawn): the IC16 in assay [1] was over 50 µM; in the assay with HeLa, over 50 µM; in the assay with Raji, 23.9 µM; with MCF7, over 50 µM. Further, the IC50 (in assay [1]; in the assay with HeLa; with Raji; in the assay with MCF7) was over 50 µM each time.
In the case of `O=C1CCCC2=C1C(c1ccc(Cl)cc1)c1c(c3ccccc3oc1=O)O2` (stereo not drawn), the IC16 in assay [1] is over 100 µM; in the assay on HeLa it was 17.9 µM; with Raji, 59 µM; in the assay with MCF7, 54.7 µM. Moreover, the IC50 is over 100 µM in assay [1], 55.8 µM in the assay with HeLa, over 100 µM with Raji and over 100 µM in the assay on MCF7.
With `COc1ccccc1C1C2=C(CCCC2=O)Oc2c1c(=O)oc1ccccc21` (stereo not drawn), the IC16 is 52.1 µM in assay [1], 37.6 µM in the assay on HeLa, 30.3 µM in the assay with Raji and over 100 µM in the assay on MCF7. Moreover, the IC50 is over 100 µM in assay [1], 74.3 µM in the assay on HeLa, over 100 µM in the assay with Raji and over 100 µM in the assay on MCF7.
For `COc1cccc(C2C3=C(CCCC3=O)Oc3c2c(=O)oc2ccccc32)c1` (stereo not drawn), the IC16 in assay [1] was determined as 48.9 µM; with HeLa it was 25.3 µM; with Raji, 13.1 µM; in the assay with MCF7, 22.2 µM. Besides, the IC50 came to 99.7 µM in assay [1], 89.9 µM with HeLa, 49.2 µM in the assay on Raji and 58.6 µM in the assay on MCF7.
For `COc1ccc(C2C3=C(CCCC3=O)Oc3c2c(=O)oc2ccccc32)cc1` (stereo not drawn), the IC16 was 100 µM in assay [1], 48.7 µM with HeLa, 33.1 µM in the assay on Raji and 35.9 µM in the assay with MCF7. For the same compound, the IC50 in assay [1] is over 100 µM; in the assay with HeLa, 97.9 µM; in the assay with Raji, over 100 µM; with MCF7, 76.3 µM.
On to `Cc1ccccc1C1C2=C(CCCC2=O)Oc2c1c(=O)oc1ccccc21` (stereo not drawn), for which the IC16 in assay [1] was found to be 53.8 µM; with HeLa, 42.9 µM; in the assay with Raji it was 26.4 µM; in the assay on MCF7 it was 30.9 µM. Further, the IC50 is over 100 µM in assay [1], over 100 µM with HeLa, 79.7 µM with Raji and over 100 µM in the assay on MCF7.
`Cc1cccc(C2C3=C(CCCC3=O)Oc3c2c(=O)oc2ccccc32)c1` (stereo not drawn): the IC16 in assay [1] was 47 µM; in the assay with HeLa it was 41.7 µM; in the assay with Raji it was 26.7 µM; with MCF7, 42.8 µM. Also, the IC50 is over 100 µM in assay [1], over 100 µM with HeLa, 72.7 µM with Raji and over 100 µM in the assay on MCF7.
Take `Cc1ccc(C2C3=C(CCCC3=O)Oc3c2c(=O)oc2ccccc32)cc1` (stereo not drawn): the IC16 in assay [1] was found to be 74.2 µM; in the assay on HeLa it was 38.8 µM; with Raji, 8.5 µM; with MCF7, 49.2 µM. Besides, the IC50 in assay [1] was over 100 µM; in the assay on HeLa, over 100 µM; with Raji, 78.9 µM; with MCF7 it was over 100 µM.
Consider `O=C1CCCC2=C1C(c1ccccc1[N+](=O)[O-])c1c(c3ccccc3oc1=O)O2` (stereo not drawn), for which the IC16 in assay [1] was over 100 µM; in the assay on HeLa, 18.1 µM; with Raji it was 14.9 µM; with MCF7, 28 µM. The IC50 is over 100 µM in assay [1], over 100 µM in the assay with HeLa, 54.8 µM with Raji and 59.5 µM in the assay with MCF7.
In the case of `O=C1CCCC2=C1C(c1cccc([N+](=O)[O-])c1)c1c(c3ccccc3oc1=O)O2` (stereo not drawn), the IC16 in assay [1] was 60.9 µM; with HeLa, 26.2 µM; in the assay on Raji it was 55.8 µM; in the assay with MCF7, 23.1 µM. The IC50 was over 100 µM in assay [1], 63.1 µM with HeLa, over 100 µM with Raji and 80.3 µM in the assay on MCF7.
Regarding `O=C1CCCC2=C1C(c1ccc([N+](=O)[O-])cc1)c1c(c3ccccc3oc1=O)O2` (stereo not drawn), the IC16 was 32.6 µM in assay [1], over 100 µM with HeLa, 47.7 µM in the assay with Raji and 26 µM with MCF7. In addition, the IC50 is 75.7 µM in assay [1], over 100 µM in the assay on HeLa, over 100 µM in the assay with Raji and 61.7 µM in the assay on MCF7.
With `O=C1CCCC2=C1C(c1ccccc1Br)c1c(c3ccccc3oc1=O)O2` (stereo not drawn), the IC16 (in assay [1]; in the assay on HeLa; in the assay on Raji; in the assay on MCF7) was over 100 µM throughout. The IC50 (in assay [1]; with HeLa; with Raji; in the assay on MCF7) was over 100 µM throughout.
With `COc1cccc2c1C(=O)c1c(O)c3c(c(O)c1C2=O)C[C@@](O)(C(=O)CO)C[C@@H]3O[C@H]1C[C@H](N)[C@H](O)[C@H](C)O1` [DOXORUBICIN], the IC16 came out at 0.03 µM in assay [1], 0.015 µM in the assay on HeLa, 0.012 µM with Raji and 0.051 µM with MCF7. Further, the IC50 in assay [1] worked out at 0.13 µM; in the assay on HeLa it was 0.053 µM; in the assay with Raji it was 0.039 µM; with MCF7 it was 0.211 µM.
